{
  "source": "patent US20250312314A1",
  "about": "“METHOD AND COMPOSITION FOR IMPROVING OR MAINTAINING SKIN HEALTH OF MAMMALS” (NANJING NUTRABUILDING BIO-TECH CO., LTD., priority 2022, published 2025)",
  "key": {"Streptococcus": {"system": "Streptococcus", "experiment": "Relative abundance of Streptococcus in skin of subjects after applying EGT base cream (16S rRNA)", "format": "in vivo, human", "conditions": "once a day for 4 weeks", "protocol": "(§1) Thirty healthy women aged 20-59 were randomly divided into three groups. The first group (0% EGT, n=10) was applied with pure base cream as the control group, the second group (5% EGT, n=10) was applied with base cream mixed with 5% ergothioneine, and the third group (10% EGT, n=10) was applied with base cream mixed with 10% ergothioneine. The applying was performed once a day for 4 weeks. Skin microorganisms were collected on the 0 th and 28 th days respectively, and the elasticity, moisture and desquamation of the skin of the subjects were measured on the 28 th day. Sterile water was used to wash Participants' faces and then applied on solid trypsin soy agar (TSA) medium. Individual colonies were collected and cultured in liquid trypsin soy broth (TSB) medium at 37° C. for 72 hours.\nEach sample was centrifuged and the precipitate was collected, and the microbial DNA in the precipitate was extracted with a specific kit. The purity and quantity of DNA were measured by spectrophotometer. The 16S rRNA gene of bacteria was amplified with the following primers: forward, 5′-[…]-3′ (SEQ ID NO: 1); reverse, 5′-[…]-3′ (SEQ ID NO: 2). PCR was carried out in a 25 μL reactor, which contained 2 μL genomic DNA (10 ng/μL), 0.5 μL primers (10 μM), 12.5 μL 2×KAPA HiFi HotStart Ready Mix and 9.5 μL distilled water. […]"}, "Corynebacterium spp.": {"system": "Corynebacterium spp.", "experiment": "Microbial colonization of reconstructed layered human epidermis, live count", "format": "cell-based", "conditions": "24±2 h", "protocol": "(§2) Primary adult human skin fibroblasts were embedded in fibrin matrix to produce dermal equivalent. The dermal equivalent was cultured to allow fibroblasts to reconstruct matrix. Primary neonatal human keratinocytes were applied on the surface of dermal equivalent and cultured in liquid for 48 hours. Culture was carried out on the air-liquid interface (ALI) until a layered epidermis was formed.\n(§3) Staphylococcus epidermidis, Corynebacterium spp., Cutibacterium spp., Propionibacterium acnes and Malassezia were cultured in proper culture medium and incubation conditions (37±2° C., 5±1% (v/v) CO2, ≥95% RH). Inoculation buffer (GS25) was used to prepare inoculum containing about 1.1×10^6 cfu mL^−1 microbial flora of the above bacteria. 10 μL of the mixture was used for skin (layered epidermis) colonization, and each unit was colonized with about 10^4 cfu·cm^−2 of each bacterium. After that, the layered epidermis was incubated at 37±2° C., 5±1% (v/v) CO2, ≥95% RH for 3±1 hours.\n(§4) α-Glucan Oligosaccharide (α-GO for short) is a famous prebiotic, which can protect skin health by maintaining the balance of microbial population and strengthening the microbial barrier of skin, so the experiment took it as a control. Control (α-GO, 1 μM) and EGT (0 μM, 0.1 μM, 1 μM, 10 μM, 100 μM, 1000 μM) were applied on the layered epidermis respectively, and then incubated for 24±2 hours at 37±2° C., 5±1% (v/v) CO2 and ≥95% RH. Then, the above five kinds of microorganisms were counted respectively to evaluate the inhibitory effect of α-GO and EGT on microbial growth: 8 mm live tissue slices were taken from layered epidermis, and the number of live bacteria (cfu·cm^−2) was evaluated by incubation on appropriate selective solid medium. The choice of solid medium is based on the characteristics of microorganisms themselves."}, "[1]": {"system": "Staphylococcus epidermidis", "experiment": "Microbial colonization of reconstructed layered human epidermis, live count", "format": "cell-based", "conditions": "24±2 h", "protocol": "as §2, §3, §4"}, "Cutibacterium spp.": {"system": "Cutibacterium spp.", "experiment": "Microbial colonization of reconstructed layered human epidermis, live count", "format": "cell-based", "conditions": "24±2 h", "protocol": "as §2, §3, §4"}, "Malassezia": {"system": "Malassezia", "experiment": "Microbial colonization of reconstructed layered human epidermis, live count", "format": "cell-based", "conditions": "24±2 h", "protocol": "as §2, §3, §4"}, "Propionibacterium acnes": {"system": "Propionibacterium acnes", "experiment": "Microbial colonization of reconstructed layered human epidermis, live count", "format": "cell-based", "conditions": "24±2 h", "protocol": "as §2, §3, §4"}, "[2]": {"experiment": "Elasticity, moisture and desquamation of skin of subjects after applying EGT base cream", "format": "in vivo, human", "conditions": "once a day for 4 weeks, day 28", "protocol": "as §1"}, "[3]": {"conditions": "EGT 0.1-1000 μM, effect more significant with increasing concentration"}},
  "data": [
    {"smiles": "C[N+](C)(C)[C@@H](Cc1c[nH]c(=S)[nH]1)C(=O)[O-]", "note": "[EGT, Ergothioneine]", "values": [
      {"measurement": "effect on relative abundance of Streptococcus, 10% EGT group compared with 5% EGT", "setting": "Streptococcus; 10% EGT base cream", "result": "more obvious"},
      {"measurement": "relative abundance (RA) of Streptococcus in skin vs pure base cream group", "setting": "Streptococcus; EGT base cream (5% and 10%), healthy women", "result": "more abundant"},
      {"measurement": "colonization of Corynebacterium spp. in the layered epidermis (live bacteria count)", "setting": "Corynebacterium spp.; [3]", "result": "obviously inhibited"},
      {"measurement": "inhibitory effect on Corynebacterium spp. compared with α-GO", "setting": "Corynebacterium spp.; same concentration (1 μM)", "result": "better inhibitory effect"},
      {"measurement": "colonization of Staphylococcus epidermidis in the layered epidermis (live bacteria count)", "setting": "[1]; [3]", "result": "obviously inhibited"},
      {"measurement": "inhibitory effect on Staphylococcus epidermidis compared with α-GO", "setting": "[1]; same concentration (1 μM)", "result": "better inhibitory effect"},
      {"measurement": "colonization of Cutibacterium spp. in the layered epidermis (live bacteria count)", "setting": "Cutibacterium spp.; [3]", "result": "obviously inhibited"},
      {"measurement": "inhibitory effect on Cutibacterium spp. compared with α-GO", "setting": "Cutibacterium spp.; same concentration (1 μM)", "result": "better inhibitory effect"},
      {"measurement": "colonization of Malassezia in the layered epidermis (live count)", "setting": "Malassezia; [3]", "result": "obviously inhibited"},
      {"measurement": "inhibitory effect on Malassezia compared with α-GO", "setting": "Malassezia; same concentration (1 μM)", "result": "better inhibitory effect"},
      {"measurement": "colonization of Propionibacterium acnes in the layered epidermis (live bacteria count)", "setting": "Propionibacterium acnes; [3]", "result": "obviously inhibited"},
      {"measurement": "inhibitory effect on Propionibacterium acnes compared with α-GO", "setting": "Propionibacterium acnes; same concentration (1 μM)", "result": "better inhibitory effect"},
      {"measurement": "increase of skin elasticity compared with 0% EGT group", "setting": "[2]; 10% EGT base cream", "result": "about 20%"},
      {"measurement": "increase of skin moisture compared with 0% EGT group", "setting": "[2]; 10% EGT base cream", "result": "about 45%"},
      {"measurement": "reduction of desquamation compared with 0% EGT group", "setting": "[2]; 10% EGT base cream", "result": "about 30%"},
      {"measurement": "skin desquamation", "setting": "[2]; EGT base cream (5% and 10%)", "result": "avoid the problem of skin desquamation"},
      {"measurement": "skin elasticity", "setting": "[2]; EGT base cream (5% and 10%)", "result": "significantly increase"},
      {"measurement": "skin moisture", "setting": "[2]; EGT base cream (5% and 10%)", "result": "significantly increase"}
    ]}
  ]
}
